Data published in ChEMBL document CHEMBL1649500, “GS-9191 is a novel topical prodrug of the nucleotide analog 9-(2-phosphonylmethoxyethyl)guanine with antiproliferative activity and possible utility in the treatment of human papillomavirus lesions” (Antimicrob Agents Chemother, 2009).

Assays:
[1] = test system: SiHa; test: Antiproliferative activity against HPV-transformed human SiHa cells after 7 days by SRB assay; assay type: functional, cell-based; conditions: 168 h
[2] = test system: Ca-Ski; test: Antiproliferative activity against HPV-transformed human CaSki cells after 7 days by SRB assay; assay type: functional, cell-based; conditions: 168 h
[3] = test system: HeLa; test: Antiproliferative activity against HPV-transformed human HeLa cells after 7 days by SRB assay; assay type: functional, cell-based; conditions: 168 h
[4] = Antiproliferative activity against HPV-transformed human MS751 cells after 7 days by SRB assay; assay type: functional, cell-based; conditions: MS751, 168 h
[5] = Antiproliferative activity against HPV-transformed human C4I cells after 7 days by SRB assay; assay type: functional, cell-based; conditions: C-4I, 168 h
[6] = test system: ME-180; test: Antiproliferative activity against HPV-transformed human ME180 cells after 7 days by SRB assay; assay type: functional, cell-based; conditions: ME-180, 168 h
[7] = test system: HT-3; test: Antiproliferative activity against HPV-non-transformed human HT3 cells after 7 days by SRB assay; assay type: functional, cell-based; conditions: HT-3, 168 h
[8] = test system: SCC-4; test: Antiproliferative activity against HPV-non-transformed human SCC4 cells after 7 days by SRB assay; assay type: functional, cell-based; conditions: SCC-4, 168 h
[9] = test system: SCC-9; test: Antiproliferative activity against HPV-non-transformed human SCC9 cells after 7 days by SRB assay; assay type: functional, cell-based; conditions: SCC-9, 168 h
[10] = Antiproliferative activity against human PHK after 7 days by SRB assay
[11] = Antiproliferative activity against human CK after 7 days by SRB assay
[12] = Antiproliferative activity against NHBE cells after 7 days by SRB assay; assay type: cell-based; conditions: Homo sapiens, 168 h
[13] = Antiproliferative activity against human lung fibroblast after 7 days by SRB assay; conditions: 168 h
[14] = Antiproliferative activity against PHF after 7 days by SRB assay; parameters: species or system Homo sapiens
[15] = test system: SiHa; test: Inhibition of DNA synthesis in HPV-transformed human SiHa cells assessed as decrease in BrdU incorporation after 3 hrs by ELISA; assay type: functional, cell-based
[16] = test system: SiHa; test: Inhibition of DNA synthesis in HPV-transformed human SiHa cells assessed as decrease in BrdU incorporation after 3 to 6 hrs by ELISA; assay type: functional, cell-based
[17] = test system: SiHa; test: Inhibition of DNA synthesis in HPV-transformed human SiHa cells assessed as decrease in BrdU incorporation after 6 to 9 hrs by ELISA; assay type: functional, cell-based
[18] = test system: SiHa; test: Inhibition of DNA synthesis in HPV-transformed human SiHa cells assessed as decrease in BrdU incorporation after 24 to 27 hrs by ELISA; assay type: functional, cell-based
[19] = test system: SiHa; test: Inhibition of DNA synthesis in HPV-transformed human SiHa cells assessed as decrease in BrdU incorporation after 48 to 51 hrs by ELISA; assay type: functional, cell-based
[20] = test system: SiHa; test: Inhibition of DNA synthesis in HPV-transformed human SiHa cells assessed as decrease in BrdU incorporation after 72 to 75 hrs by ELISA; assay type: functional, cell-based
[21] = test system: SiHa; test: Induction of apoptosis in HPV-transformed human SiHa cells assessed as viable cells at 180000 nM after 3 days by propidium iodide staining-based flow cytometry; assay type: functional; conditions: 72 h, read-out: Activity
[22] = test system: SiHa; test: Induction of apoptosis in HPV-transformed human SiHa cells assessed as apoptotic cells at 180000 nM after 3 days by propidium iodide staining-based flow cytometry; assay type: functional
[23] = test system: SiHa; test: Induction of apoptosis in HPV-transformed human SiHa cells assessed as viable cells at 180000 nM after 7 days by propidium iodide staining-based flow cytometry; assay type: functional; conditions: 168 h, read-out: Activity
[24] = test system: SiHa; test: Induction of apoptosis in HPV-transformed human SiHa cells assessed as apoptotic cells at 180000 nM after 7 days by propidium iodide staining-based flow cytometry; assay type: functional
[25] = target: T1, DNA polymerase alpha catalytic subunit (Homo sapiens, UniProt P09884); test: Inhibition of human DNA polymerase alpha by microplate reader analysis
T1 sequence (P09884 whole entry): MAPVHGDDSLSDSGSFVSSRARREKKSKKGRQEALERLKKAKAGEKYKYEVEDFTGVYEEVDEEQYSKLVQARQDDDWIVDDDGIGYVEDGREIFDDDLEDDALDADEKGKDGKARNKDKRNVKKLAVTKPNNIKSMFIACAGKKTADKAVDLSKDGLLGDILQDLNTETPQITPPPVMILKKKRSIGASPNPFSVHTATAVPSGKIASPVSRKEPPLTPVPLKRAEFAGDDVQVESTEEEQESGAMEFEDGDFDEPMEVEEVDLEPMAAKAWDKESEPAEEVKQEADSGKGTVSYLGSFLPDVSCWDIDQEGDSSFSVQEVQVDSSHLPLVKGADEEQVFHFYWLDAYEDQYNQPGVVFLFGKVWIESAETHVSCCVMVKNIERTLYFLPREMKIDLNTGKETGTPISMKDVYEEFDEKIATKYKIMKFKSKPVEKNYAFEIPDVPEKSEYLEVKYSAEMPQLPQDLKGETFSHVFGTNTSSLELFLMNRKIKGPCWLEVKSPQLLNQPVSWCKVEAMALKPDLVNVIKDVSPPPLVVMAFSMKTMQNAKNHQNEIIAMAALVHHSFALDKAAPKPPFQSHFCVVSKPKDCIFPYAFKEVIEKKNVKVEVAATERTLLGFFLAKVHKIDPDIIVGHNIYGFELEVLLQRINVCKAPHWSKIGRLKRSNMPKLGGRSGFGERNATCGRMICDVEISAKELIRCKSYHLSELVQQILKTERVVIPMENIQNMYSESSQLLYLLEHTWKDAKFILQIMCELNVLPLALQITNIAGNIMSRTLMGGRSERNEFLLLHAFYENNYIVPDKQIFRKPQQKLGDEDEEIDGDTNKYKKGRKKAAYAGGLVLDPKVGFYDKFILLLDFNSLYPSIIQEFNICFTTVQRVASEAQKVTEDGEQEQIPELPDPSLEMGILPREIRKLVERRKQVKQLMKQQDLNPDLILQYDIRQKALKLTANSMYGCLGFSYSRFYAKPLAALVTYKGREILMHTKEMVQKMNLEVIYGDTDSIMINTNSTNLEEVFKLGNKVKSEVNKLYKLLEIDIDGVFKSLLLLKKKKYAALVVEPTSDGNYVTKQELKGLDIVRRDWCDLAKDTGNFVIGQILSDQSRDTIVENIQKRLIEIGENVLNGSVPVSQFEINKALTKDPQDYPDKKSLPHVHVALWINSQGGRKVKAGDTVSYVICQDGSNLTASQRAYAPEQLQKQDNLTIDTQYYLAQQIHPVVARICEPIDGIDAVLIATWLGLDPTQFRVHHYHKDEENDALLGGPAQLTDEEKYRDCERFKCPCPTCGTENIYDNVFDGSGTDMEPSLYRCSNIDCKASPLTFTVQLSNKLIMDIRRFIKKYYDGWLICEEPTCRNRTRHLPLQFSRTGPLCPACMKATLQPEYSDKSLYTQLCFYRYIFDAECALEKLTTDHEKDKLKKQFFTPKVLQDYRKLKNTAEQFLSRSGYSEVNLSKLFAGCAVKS

[26] = target: DNA polymerase beta (Homo sapiens, UniProt P06746); test: Inhibition of human DNA polymerase beta by microplate reader analysis

Row | Compound | EC50 [1] | EC50 [2] | EC50 [3] | EC50 [4] | EC50 [5] | EC50 [6] | EC50 [7] | EC50 [8] | EC50 [9] | EC50 [10] | EC50 [11] | EC50 [12] | EC50 [13] | EC50 [14] | EC50 [15] | EC50 [16] | EC50 [17] | EC50 [18] | EC50 [19] | EC50 [20] | also measured
1 | Nc1nc(NC2CC2)c2ncn(CCOCP(=O)(O)O)c2n1 | 0.29 µM | 1.41 µM | 6.93 µM | 3.31 µM | 1.33 µM | 8.32 µM | 7.04 µM | 1.43 µM | 10.1 µM | 3.7 µM | 1.38 µM | 2.3 µM | 4.82 µM | 12.7 µM | 8.84 µM | 1.86 µM | 1.5 µM | 2.3 µM | 2.65 µM | > 20 µM | –
2 | Nc1nc2c(ncn2CCOCP(=O)(O)O)c(=O)[nH]1 [GS-438] | 0.21 µM | 5.53 µM | 2.16 µM | 2.8 µM | 0.47 µM | 2.57 µM | 1.93 µM | 0.16 µM | 3.15 µM | 0.55 µM | > 100 µM | 0.67 µM | 0.29 µM | 1.58 µM | 8.97 µM | 3.04 µM | 2.58 µM | 3.63 µM | 6.02 µM | 10.1 µM | –
3 | Nc1ccn(C[C@@H](CO)OCP(=O)(O)O)c(=O)n1.O.O [CIDOFOVIR] | > 100 µM | > 100 µM | > 100 µM | > 100 µM | 3.1 µM | 64.7 µM | > 100 µM | > 100 µM | > 100 µM | 14.4 µM | 51.7 µM | 31.9 µM | 23.5 µM | > 100 µM | – | – | – | – | – | – | viability at 180 µM [21]: 98.1%; Activity [22]: 1.6%; viability at 180 µM [23]: 62.2%; Activity [24]: 37.2%
4 | Nc1nc(NC2CC2)c2ncn(CCOCP(=O)(O)OP(=O)(O)O)c2n1 | – | – | – | – | – | – | – | – | – | – | – | – | – | – | – | – | – | – | – | – | IC50 [25]: > 100 µM; IC50 [26]: 33 µM
